The subject of data set [1] is human umbilical vein endothelial cells (HUVEC). The data set is described as follows: Cell viability of normal cells (HUVEC), 3-day treatment. Conditions: 3 days, FIG. 2A. In kind it is cell-based. The text has this:
(§1) In this example, the effect of the lipid nanoparticle on the growth of normal cells is investigated.
(§2) Dox represents doxorubicin; Tetrac represents tetraiodothyroacetic acid.

Data set [2] has as its system monkey kidney epithelial cells (Vero). The data set is described as follows: Cell viability of normal cells (Vero), 3-day treatment. The settings on record: 3 days, FIG. 2A. In kind it is cell-based.
Text: as §1, §2

SMILES strings stand for the structures.

`O=C(O)Cc1cc(I)c(Oc2cc(I)c(O)c(I)c2)c(I)c1` [Tetrac, tetraiodothyroacetic acid]: the “cell viability / growth of normal cells” value in data set [1] and in data set [2] was “do not affect the growth of normal cells” each time.

The record behind these values is US20240139113A1, “LIPID NANOPARTICLE WITH TARGET INTEGRIN FUNCTION AND USES THEREOF” (priority 2022, published 2024).
